Assays:
[1] = system: human pancreatic cancer cell line Capan-1; assay: Combinational effect test in Capan-1 subcutaneously implanted tumor-bearing model mouse (anti-tumor effect); assay type: in vivo, BALB/cA Jcl-nu mice; parameters: key to vs. control: * statistically significant; details: for T/C (%): average RTV of treated group / average RTV of control group x 100, Day 33; for GC (%): growth of control, calculated from RTV at Day 33; for RTV (mean ± standard deviation): relative tumor volume, TV at Day 33 / TV at Day 1, tail vein once a week, three times, n=8; for vs. control: statistical significance of RTV vs. control group, Day 33
Method: Combinational effect test in Capan-1 subcutaneously implanted tumor-bearing model mouse
Gemcitabine (hereinafter, also referred to as Gem), Abraxane (hereinafter, also referred to as Abx), and methanesulfonate of Compound A were used as test substances.
Gemcitabine was prepared by dissolving gemcitabine hydrochloride (manufactured by Teva Pharmaceutical Industries Limited) in physiological saline. Abraxane was prepared by dissolving Abraxane (manufactured by Celgene Corporation) in physiological saline.
Capan-1 cell, a human pancreatic cancer cell line, was subcutaneously injected into the posterior flank of 5 to 6-week old female BALB/cA Jcl-nu mice. After tumor implantation, the major diameter (mm) and minor diameter (mm) of the tumor were measured, and the tumor volume (TV) was calculated. Mice were assigned to each group so that the average TV of each group was equal, and the day on which this grouping (n=8) was carried out was taken as Day 1.
The test liquid in Abraxane alone group was prepared to be 30 mg/kg/day as the administration dose. In addition, the test liquid in Compound A alone group was prepared to be 480 mg/kg/day. Compound A was administered from the mouse tail vein a total of three times from Day 1 once a week, and Abraxane was similarly administered from the mouse tail vein a total of three times from Day 1 once a week. In the combined administration group, Compound A was administered at 480 mg/kg/day and Abraxane was administered at 30 mg/kg/day.
As a comparative experiment, gemcitabine was used as a control. The test liquid of gemcitabine alone group was prepared to be 240 mg/kg/day. Gemcitabine was administered from the mouse tail vein a total of three times from Day 1 once a week. In the combined administration group, gemcitabine was administered at 240 mg/kg/day and Abraxane was administered at 30 mg/kg/day.
In this test, doses of Compound A and gemcitabine were set using MTD of each drug. Abraxane was used at the maximum dose usable in combination with each drug. […] In this test example, the MTD and the maximum effect dose are almost synonymous.
As an index of anti-tumor effect, TV at Day 33 was measured in each drug administration group. According to the following equation, a relative tumor volume (RTV) with respect to Day 1 and T/C (%) were calculated to evaluate the anti-tumor effect. […] TV (mm^3)=(major diameter×minor diameter^2)/2 RTV=(TV at Day 33)/(TV at Day 1) T/C (%)=[(average RTV value of test liquid administered group)/(average RTV value of control group)]×100
On the combinational effect of the present invention, the results of evaluation using a combination index (CI) which is a quantitative index of the combinational effect are shown. The CI can be calculated by the following equation according to Cancer Research, 2010, Vol. 70, pp. 440 to 446.
That is, in the case where the drugs to be used in combination are drugs 1 and 2, CI=(T/C at the time of combination use)÷100/{[(T/C of drug 1)÷100]×[(T/C of drug 2)÷100]} CI=1: additive effect CI>1: antagonistic effect CI<1: synergistic effect
In addition, on the combinational effect of the present invention, the results of evaluation using a tumor growth inhibitory effect (growth of control (GC)) are shown. For the evaluation method, the same method as in B of FIG. 5 of Molecular Cancer Therapeutics, 2013, Vol. 12, pp. […] was used.
As described in the above document, the GC can be calculated by the following equation. In the case where RTV>1 GC (%)=[(corresponding drug RTV-1)/(control RTV-1)]×100 [1] In the case where RTV≤1 GC (%)=(corresponding drug RTV-1)×100 [2]
Combinational effect was estimated from the drug efficacy with Abraxane and Compound A or gemcitabine alone by the following calculation equation. The estimated combination use GC (%)=[GC (%) of Abraxane×drug alone GC (%)]÷100

tumor = details: oral administration to mice; cited from earlier work

Row | Compound | T/C (%) [1] [%] | GC (%) [1] [%] | RTV (mean ± standard deviation) [1] | vs. control [1] | enhancement of anti-tumor effect in combination use ([1]; Compound A 480 mg/kg/day with Abraxane 30 mg/kg/day, nude mice) | anti-tumor activity (tumor)
1 | Nc1ccn([C@@H]2O[C@H](CO)[C@@H](O)C2(F)F)c(=O)n1 [Gem, gemcitabine, reference compound] | 68.3 | 57.8 | 2.74 ± 0.41 | * | – | –
2 | Nc1ccn([C@@H]2S[C@H](CO)[C@@H](O)[C@@H]2F)c(=O)n1 [Compound A, 1-(2-deoxy-2-fluoro-4-thio-β-D-arabinofuranosyl)cytosine] | 32.2 | 9.6 | 1.29 ± 0.59 | * | significantly enhanced the anti-tumor effect of Abraxane | potent anti-tumor activity

Reference: US11369625B2, “Anti-tumor agent, anti-tumor effect enhancer, and anti-tumor kit” (FUJIFILM Corporation, priority 2017, dated 2022)
